# Test results published in patent US11091497B2, “Pyrano[3,4-b]pyrazine kappa opioid receptor ligands for treating addiction, pruritus, pain, and inflammation” (The Rockefeller University, priority 2017, dated 2021).
# Read-outs that look alike come from different tables or passages of the source.
# What was measured:
# [1] = target: T1, kappa opioid receptor (PathHunter U2OS hOPRK1 membranes) (Homo sapiens, UniProt P41145); experiment: Tritiated U69,593 binding for KOP-R membranes
# T1 construct: host or cells: U2OS (PathHunter U2OS hOPRK1 β-arrestin cell line)
# T1 sequence (P41145 whole entry): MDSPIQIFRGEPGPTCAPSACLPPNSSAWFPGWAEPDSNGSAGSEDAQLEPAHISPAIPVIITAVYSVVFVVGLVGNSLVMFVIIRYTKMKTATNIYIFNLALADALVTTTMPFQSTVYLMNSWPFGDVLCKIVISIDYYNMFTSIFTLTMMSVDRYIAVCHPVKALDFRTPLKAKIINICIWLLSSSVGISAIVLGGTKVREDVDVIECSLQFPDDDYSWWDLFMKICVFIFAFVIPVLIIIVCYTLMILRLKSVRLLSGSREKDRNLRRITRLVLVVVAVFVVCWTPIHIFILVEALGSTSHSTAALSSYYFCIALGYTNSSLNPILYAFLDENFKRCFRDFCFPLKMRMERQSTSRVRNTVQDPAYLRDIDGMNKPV
# Protocol: Tritiated U69,593 binding for KOP-R membranes; tritiated DAMGO binding for MOP-R membranes; and tritiated DPDPE binding for DOP-R membranes:
# (§1) Membranes from cells stably expressing kappa, mu or delta opioid receptor constructs (PathHunter U2OS hOPRK1, CHO-K1 rOPRM1 and CHO-K1 OPRD1 β-arrestin cell line, DiscoverX, Fremont, Calif., USA) were used. Cells were scraped from tissue culture plates, homogenized with a tissue tearor homogenizer in membrane buffer (10 mM Tris, 100 mM NaCl, and 1 mM EDTA; pH 7.4), and centrifuged at 20,000 g for 30 minutes at 4° C. and frozen at −80° C. until use. Prior to use, the pellets were resuspended in binding buffer (50 mm Tris, 100 mm NaCl, pH 7.4), homogenized with a dounce homogenizer and […] incubated with 1.0 nM of the appropriate tritiated ligand ([^3H]U69,593, [^3H]DAMGO or [^3H]DPDPE for kappa, mu or delta binding, respectively) and the appropriate concentration of compound for 60 minutes at 30° C. Membranes with bound tritiated ligand were collected on Whatman GF/B filter paper (Brandel, Gaithersburg, Md., USA) utilizing a Brandel harvester. Bound tritiated ligand was quantified using a TriCarb-2900TR scintillation counter (Packard, Downers Grove, Ill., USA) following addition of 4 ml ReadySafe scintillation fluid (Beckman Coulter, Indianapolis, Ind., USA). Compiled data for each compound was normalized to the maximal binding in the absence of compound, with non-specific binding subtracted. Curve fitting was done in Microcal Origin 17.0 software using logistic sigmoidal fit, to determine IC50. GTPgammaS Membranes from U2OS cells stably expressing human kappa opioid receptors were used. Cells were scraped from tissue culture plates, homogenized with a tissue tearor homogenizer in membrane buffer (10 mM Tris, 100 mM NaCl, and 1 mM EDTA; pH 7.4), and centrifuged at 20,000 g for 30 minutes at 4° C. and frozen at −80° C. until use. Prior to use, the pellets were resuspended in assay buffer (50 mm Tris, 100 mm NaCl, 5 mM MgCl2, and 1 mM EDTA; pH 7.4) and homogenized with a dounce homogenizer and 50 μg incubated with 0.1 nM [35 S]GTPγS, 10 nM GDP, and the appropriate concentration of agonist for 20 minutes at 30° C. To test inhibition, all samples were incubated with 100 nM U69,593 as well as the appropriate concentration of compound. Membranes with bound [35 S]GTPγS were collected on Whatman GF/B filter paper (Brandel, Gaithersburg, Md., USA) utilizing a Brandel harvester. Bound [35 S]GTPγS was quantified using a TriCarb-2900TR scintillation counter (Packard, Downers Grove, Ill., USA) following addition of 4 mL ReadySafe scintillation fluid (Beckman Coulter, Indianapolis, Ind., USA). […] NA indicates not applicable. For each compound, curve fitting was done in Microcal Origin 17.0 software using logistic sigmoidal fit, to determine EC50 and maximal percent stimulation, which in turn was normalized to the maximal percent stimulation of the test full agonist compound U69,593 to determine % efficacy. β2-Arrestin Experiments were conducted using the PathHunter Detection Kit obtained from DiscoverX. Cells stably expressing kappa, mu or delta opioid receptor constructs (PathHunter U2OS hOPRK1, CHO-K1 rOPRM1 and CHO-K1 OPRD1 β-arrestin cell line, DiscoverX, Fremont, Calif., USA) were plated in 96- or 384-well plates. Cells were stimulated with the compounds for 90 minutes at 37° C. To test inhibition, all samples were incubated with 100 nM U69,593 as well as the appropriate concentration of compound. Cells were then incubated for 60 minutes in the presence of galoctosidase substrate, yielding chemiluminescent product. Chemiluminescence was measured using a Synergy Neo microplate reader (BioTek, Winooski, Vt., USA). Antagonism assays were done in the same manner, in the presence of 300 nM U69,593, 1 μM DAMGO or 1 μM DPDPE for KOP-R, MOP-R or DOP-R assays, respectively. […] NA indicates not applicable. […]
# [2] = target: T2, human kappa opioid receptors (Homo sapiens, UniProt P41145); experiment: [35S]GTPγS stimulation, membranes from U2OS cells; format: biochemical; conditions: for Emax: read-out: GTPγS stimulation % efficacy
# T2 construct: expressed in transfected cells; host or cells: U2OS
# T2 sequence (P41145 whole entry): as above
# Protocol: Membranes from cells stably expressing kappa, mu or delta opioid receptor constructs (PathHunter U2OS hOPRK1, CHO-K1 rOPRM1 and CHO-K1 OPRD1 β-arrestin cell line, DiscoverX, Fremont, Calif., USA) were used. Cells were scraped from tissue culture plates, homogenized with a tissue tearor homogenizer in membrane buffer (10 mM Tris, 100 mM NaCl, and 1 mM EDTA; pH 7.4), and centrifuged at 20,000 g for 30 minutes at 4° C. and frozen at −80° C. until use. Prior to use, the pellets were resuspended in binding buffer (50 mm Tris, 100 mm NaCl, pH 7.4), homogenized with a dounce homogenizer and […] incubated with 1.0 nM of the appropriate tritiated ligand ([^3H]U69,593, [^3H]DAMGO or [^3H]DPDPE for kappa, mu or delta binding, respectively) and the appropriate concentration of compound for 60 minutes at 30° C. Membranes with bound tritiated ligand were collected on Whatman GF/B filter paper (Brandel, Gaithersburg, Md., USA) utilizing a Brandel harvester. Bound tritiated ligand was quantified using a TriCarb-2900TR scintillation counter (Packard, Downers Grove, Ill., USA) following addition of 4 ml ReadySafe scintillation fluid (Beckman Coulter, Indianapolis, Ind., USA). Compiled data for each compound was normalized to the maximal binding in the absence of compound, with non-specific binding subtracted. Curve fitting was done in Microcal Origin 17.0 software using logistic sigmoidal fit, to determine IC50. GTPgammaS Membranes from U2OS cells stably expressing human kappa opioid receptors were used. Cells were scraped from tissue culture plates, homogenized with a tissue tearor homogenizer in membrane buffer (10 mM Tris, 100 mM NaCl, and 1 mM EDTA; pH 7.4), and centrifuged at 20,000 g for 30 minutes at 4° C. and frozen at −80° C. until use. Prior to use, the pellets were resuspended in assay buffer (50 mm Tris, 100 mm NaCl, 5 mM MgCl2, and 1 mM EDTA; pH 7.4) and homogenized with a dounce homogenizer and 50 μg incubated with 0.1 nM [35 S]GTPγS, 10 nM GDP, and the appropriate concentration of agonist for 20 minutes at 30° C. To test inhibition, all samples were incubated with 100 nM U69,593 as well as the appropriate concentration of compound. Membranes with bound [35 S]GTPγS were collected on Whatman GF/B filter paper (Brandel, Gaithersburg, Md., USA) utilizing a Brandel harvester. Bound [35 S]GTPγS was quantified using a TriCarb-2900TR scintillation counter (Packard, Downers Grove, Ill., USA) following addition of 4 mL ReadySafe scintillation fluid (Beckman Coulter, Indianapolis, Ind., USA). […] For each compound, curve fitting was done in Microcal Origin 17.0 software using logistic sigmoidal fit, to determine EC50 and maximal percent stimulation, which in turn was normalized to the maximal percent stimulation of the test full agonist compound U69,593 to determine % efficacy. β2-Arrestin Experiments were conducted using the PathHunter Detection Kit obtained from DiscoverX. Cells stably expressing kappa, mu or delta opioid receptor constructs (PathHunter U2OS hOPRK1, CHO-K1 rOPRM1 and CHO-K1 OPRD1 β-arrestin cell line, DiscoverX, Fremont, Calif., USA) were plated in 96- or 384-well plates. Cells were stimulated with the compounds for 90 minutes at 37° C. To test inhibition, all samples were incubated with 100 nM U69,593 as well as the appropriate concentration of compound. Cells were then incubated for 60 minutes in the presence of galoctosidase substrate, yielding chemiluminescent product. Chemiluminescence was measured using a Synergy Neo microplate reader (BioTek, Winooski, Vt., USA). Antagonism assays were done in the same manner, in the presence of 300 nM U69,593, 1 μM DAMGO or 1 μM DPDPE for KOP-R, MOP-R or DOP-R assays, respectively.
# [3] = target: T3, kappa opioid receptor (PathHunter U2OS hOPRK1 β-arrestin cell line) (Homo sapiens, UniProt P41145); experiment: β-arrestin coupling (PathHunter Detection Kit); format: cell-based; conditions: for β-arrestin coupling % efficacy: maximal, normalized to U69,593; for β-arrestin coupling % efficacy / β-arrestin coupling EC50: No stim = no stimulation at highest dose tested, 10,000 nM; for Emax at 10 µM: U2OS; for β-arrestin coupling EC50: 90 minutes at 37° C.
# T3 construct: host or cells: U2OS (PathHunter U2OS hOPRK1 β-arrestin cell line)
# T3 sequence (P41145 whole entry): as above
# Protocol: as §1
# [4] = 1.0 nM [3H]U69,593, 60 minutes at 30° C., read-out: Binding IC50
# [5] = read-out: β-arrestin coupling % efficacy
# [6] = read-out: β-arrestin coupling % efficacy at 10 μM
SMILES,"IC50 [1, 4] [nM]",EC50 [2] [nM],Emax [2] [%],β-arrestin coupling % efficacy [3],EC50 [3] [nM],"Emax at 10 µM [3, 5] [%]",β-arrestin coupling EC50 [3],IC50 [1] [nM],"Emax at 10 µM [3, 6] [%]"
O=C(Cc1cccc(Cl)c1)N1CCN[C@@H]2COC[C@H](N3CCCC3)[C@H]21 (racemic) [Example 5A24],251,213,64,No stim,,,,,
O=C(Cc1ccc(F)c(Cl)c1)N1CCN[C@@H]2COC[C@H](N3CCCC3)[C@H]21 (racemic) [Example 5A25],249,571,93,,13600,29,,,
O=C(Cc1cccc(C(F)(F)F)c1)N1CCN[C@@H]2COC[C@H](N3CCCC3)[C@H]21 (racemic) [Example 5A26],112,130,108,,3260,42,,,
O=C(Cc1cc(Cl)cc(Cl)c1)N1CCN[C@@H]2COC[C@H](N3CCCC3)[C@H]21 (racemic) [Example 5A32],410,464,66.5,No stim,,,No stim,,
Cc1ccc(CC(=O)N2CCN[C@@H]3COC[C@H](N4CCCC4)[C@H]32)cc1C (racemic) [Example 5A40],719,1700,111,No stim,,,No stim,,
CS(=O)(=O)N1CCN(C(=O)Cc2ccc(Cl)c(Cl)c2)[C@H]2[C@H]1COC[C@@H]2N1CCCC1 (racemic) [Example 5A44],,6.7,88,,6200,55,,19,
O=C(Cc1ccc(Cl)c(C(F)(F)F)c1)N1CCN[C@@H]2COC[C@H](N3CCCC3)[C@H]21 (racemic) [Example 5A46],,6.3,131,,,,,15,100
Cc1ccc(CC(=O)N2CCN[C@@H]3COC[C@H](N4CCCC4)[C@H]32)cc1C(F)(F)F (racemic) [Example 5A47],,9,84,,4900,78,,31,
O=C(Cc1cccc(Cl)c1Cl)N1CCN[C@@H]2COC[C@H](N3CCCC3)[C@H]21 (racemic) [Example 5A48],1040,21800,181,No stim,,,,,
O=C(Cc1ccc(C(F)(F)F)cc1)N1CCN[C@@H]2COC[C@H](N3CCCC3)[C@H]21 (racemic) [Example 5A49],102,109,69,,11000,36,,,
CN(CC1CC1)[C@H]1COC[C@H]2NCCN(C(=O)Cc3ccc(Cl)c(Cl)c3)[C@@H]21 (racemic) [Example 5A50],,93,79,No stim,,,,297,
CN(C)[C@H]1COC[C@H]2NCCN(C(=O)Cc3ccc(Cl)c(Cl)c3)[C@@H]21 (racemic) [Example 5A51],120,108,71,No stim,,,,,
O=C(Cc1ccc(Cl)c(Cl)c1)N1CCN(S(=O)(=O)C2CC2)[C@@H]2COC[C@H](N3CCCC3)[C@H]21 (racemic) [Example 5A52],,3,101,,3300,79,,5.1,
"O=C(Cc1ccc(Cl)c(Cl)c1)N1CCN(Cc2ccccc2)[C@@H]2COC[C@H](N3CCCC3)[C@H]21 (racemic) [Example 5A53, 1-[4-benzyl-8-pyrrolidin-1-yl-3,4a,5,7,8,8a-hexahydro-2H-pyrano(3,4-b)pyrazin-1-yl]-2-(3,4-dichlorophenyl)ethanone]",,12,82,,,,,40,80
O=C(Cc1ccc(Cl)c(Cl)c1)N1CCN(CC2CCCC2)[C@@H]2COC[C@H](N3CCCC3)[C@H]21 (racemic) [Example 5A54],,31,73,,,,,73,20
